Reference: ChEMBL document CHEMBL4825740, “Novel Histone Deacetylase Inhibitors for Treating HIV Infection” (ACS Med Chem Lett, 2021)

How the values were obtained:
Histone deacetylase 1 = Histone deacetylase 1 (Homo sapiens, UniProt Q13547); assay: Inhibition of human recombinant FLAG-tagged HDAC1 expressed in HEK293F cells incubated for 30 mins by Fluor De Lys assay; format: cell-based
Histone deacetylase 3 = Histone deacetylase 3 (Homo sapiens, UniProt O15379); assay: Inhibition of human recombinant FLAG-tagged HDAC3 expressed in HEK293F cells incubated for 30 mins by Fluor De Lys assay; format: cell-based
Histone deacetylase 2 = Histone deacetylase 2 (Homo sapiens, UniProt Q92769); assay: Inhibition of human recombinant FLAG-tagged HDAC2 expressed in Sf9 cells incubated for 30 mins by Fluor De Lys assay
Histone deacetylase 2, sequence (Q92769 whole entry): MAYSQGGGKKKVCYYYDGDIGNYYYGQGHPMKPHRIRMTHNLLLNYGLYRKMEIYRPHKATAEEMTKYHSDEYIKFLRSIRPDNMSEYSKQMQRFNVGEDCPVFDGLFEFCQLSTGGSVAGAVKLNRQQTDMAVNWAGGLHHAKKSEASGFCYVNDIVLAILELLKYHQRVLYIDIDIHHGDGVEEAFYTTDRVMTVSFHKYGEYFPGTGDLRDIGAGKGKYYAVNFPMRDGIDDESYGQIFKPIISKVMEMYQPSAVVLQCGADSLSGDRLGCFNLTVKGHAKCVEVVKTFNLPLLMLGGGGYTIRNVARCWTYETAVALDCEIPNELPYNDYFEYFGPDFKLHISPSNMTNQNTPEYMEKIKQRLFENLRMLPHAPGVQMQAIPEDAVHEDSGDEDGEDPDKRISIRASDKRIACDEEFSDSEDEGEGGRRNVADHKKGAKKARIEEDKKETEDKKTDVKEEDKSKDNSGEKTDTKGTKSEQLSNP

Histone deacetylase 1, sequence (Q13547 whole entry): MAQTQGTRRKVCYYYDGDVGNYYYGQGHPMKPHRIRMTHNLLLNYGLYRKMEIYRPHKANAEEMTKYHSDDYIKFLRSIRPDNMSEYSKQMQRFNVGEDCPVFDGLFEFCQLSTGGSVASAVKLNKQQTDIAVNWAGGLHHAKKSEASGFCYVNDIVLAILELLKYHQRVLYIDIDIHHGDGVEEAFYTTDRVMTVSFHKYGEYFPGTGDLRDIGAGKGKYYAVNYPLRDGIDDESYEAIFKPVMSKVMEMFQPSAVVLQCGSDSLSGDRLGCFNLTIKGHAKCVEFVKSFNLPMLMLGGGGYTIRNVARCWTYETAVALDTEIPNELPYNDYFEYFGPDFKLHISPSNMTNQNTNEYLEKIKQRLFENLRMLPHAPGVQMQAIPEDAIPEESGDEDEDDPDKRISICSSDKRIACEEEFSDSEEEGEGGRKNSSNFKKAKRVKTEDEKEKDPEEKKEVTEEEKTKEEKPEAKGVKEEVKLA
Histone deacetylase 3, sequence (O15379 whole entry): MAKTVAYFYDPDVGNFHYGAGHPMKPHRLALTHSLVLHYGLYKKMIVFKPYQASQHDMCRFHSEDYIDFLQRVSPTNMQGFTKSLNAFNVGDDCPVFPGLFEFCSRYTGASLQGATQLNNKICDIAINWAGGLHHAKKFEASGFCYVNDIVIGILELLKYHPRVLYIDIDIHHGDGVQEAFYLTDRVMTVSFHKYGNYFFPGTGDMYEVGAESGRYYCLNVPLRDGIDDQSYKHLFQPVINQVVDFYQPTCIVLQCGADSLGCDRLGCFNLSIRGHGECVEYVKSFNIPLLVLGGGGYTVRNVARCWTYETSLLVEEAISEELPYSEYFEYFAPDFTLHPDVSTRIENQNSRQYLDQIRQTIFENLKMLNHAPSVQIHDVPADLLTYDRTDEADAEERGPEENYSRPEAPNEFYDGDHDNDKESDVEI

| IC50 (Histone deacetylase 1) [nM] | IC50 (Histone deacetylase 3) [nM] | IC50 (Histone deacetylase 2) [nM] | SMILES |
| --- | --- | --- | --- |
| < 1.5 | < 1.5 | – | CCC(=O)CCCCC[C@H](NC(=O)[C@H]1CC12CCN(CC)CC2)c1ncc(-c2cc3cccnc3cc2OC)o1 |
| 0.32 | – | 2 | CCC(=O)CCCCC[C@H](NC(=O)[C@H]1CC12CCN(C)CC2)c1ncc(-c2cc3ccc(N4CCCC4)nc3cc2OC)[nH]1 |
